Consider 65 compounds from a melting point compilation (Tetko et al.; mined from patent text by program, amines drawn as free bases though some values may be those of a salt).

Each structure is given as a SMILES string. A value given as a limit tells only on which side of the number the result lay.

`N#Cc1cnc2cnc(F)cc2c1O`: the melting point (usually the temperature of the solid-liquid transition) fell in the range of 214 to 215 °C. To `Cc1c(F)c(N2CCC(N)C2)c(F)c2c1c(=O)c(C(=O)O)cn2-c1ccc(F)cc1F` (stereo not given) belongs 230 to 232 °C. Then `CC(C)(C)c1cc(CN2CCN(c3ccc(N)cc3)CC2)cc(C(C)(C)C)c1O`, with 152 to 154 °C; and `CSc1nc2ccnn2c(NCc2ccco2)c1C#N`, with 110 °C; and `CCOC(=O)c1cn(Cc2ccccc2)c2cc(C(C)C)nn2c1=O`, with 135 to 140 °C. To `CS(=O)(=O)N1CCC(CCC(=O)c2ccc3c(c2)CCN(Cc2ccccc2)CC3)CC1` belongs 134 to 137 °C; to `CC(C)(CCc1nnn[nH]1)c1ccc(C(=O)Nc2cn3cc(Cl)ccc3n2)cc1`, 250 to 251 °C. The compound `CC1=C(c2ccncc2)SC(c2ccco2)C(=O)N1` (stereo not given) showed a melting point of 178 to 180 °C. Then `Clc1cc(Cl)c2nc(SCc3ccccc3)nn2c1`, with 115 to 116 °C; and `CC(=O)OC1(C(C)=O)CCC2C3CCC4=CC(=O)CCC4(C)C3(Br)C(F)CC21C` (stereo not given), with 180 to 182 °C; and `CCCCCCCCCCCCCCCCCCOc1cc(OCCCCC(=O)O)cc(N(CC(=O)O)CC(=O)O)c1`, with 126 to 128 °C.

The compound `CNC(=O)c1cc2ccccc2c(-c2ccccc2I)n1` displayed a melting point of 167 to 168 °C. To `O=C(Nc1cccc(-n2nc(C(F)(F)F)cc2C(F)(F)F)c1)c1c(F)cccc1F` belongs 142 to 143 °C. Then `OCc1cc2c(F)ccc(Br)c2s1`, with 80 to 81 °C; and `COc1ccc(-c2nc(Cn3cnnc3)nc3cc(OC)c(OC)cc23)cc1`, with 212 to 213 °C. Then `CCOC(=NC(=O)c1ccc(F)cc1)N1Cc2ccccc2-c2ccccc2C1`, with 109 to 110 °C; and `CCc1cc(OC)cc2nc(-c3cccnc3N3CC[C@H](N(C)C)C3)oc(=O)c12`, with 148 to 155 °C. Turning to `Cc1nc(NCCc2ccccc2)sc1-c1ccnc(Nc2ccc(N3CCOCC3)cc2)n1`, the melting point was in the range of 226 to 228 °C. To `COc1ccc(C(=O)c2ccc(Cl)nc2)cc1OC` belongs 158 to 159 °C; to `CCc1[nH]c2cccc3c2c1CC1C3CC(NC(=O)N(CC)CC)CN1C` (stereo not given), 165 to 168 °C. To `Cc1ccc(C(C)C)n1N` belongs 21 to 24 °C; to `COc1ccc(CCNC(=O)CCCCC(=O)NCCc2ccc(OC)c(OC)c2CCc2cccc(OC)c2)cc1`, 153 to 155 °C; to `Clc1ccc(-c2cc(-c3ccccc3)c(-c3ccccc3)s2)cc1`, 115 to 117 °C. Then `CCc1ccc(-c2nc3ccccc3[nH]2)nc1`, with 172 to 173 °C. Regarding `Cc1cccc(C(=O)NO)c1N(C)S(=O)(=O)c1ccc(OCCCNC(=O)c2cc3ccccc3o2)cc1`, the melting point lay within 148 to 150 °C. Then `CC(=O)N1CC(=O)Nc2ccccc21`, with 164 to 165 °C; and `Cc1ccc(NC(=O)c2ccc(CN3CCNC(C(N)=O)C3)c(C(F)(F)F)c2)cc1Nc1nccc(-c2cncnc2)n1` (stereo not given), with 235 to 238 °C; and `COc1cc(CN[C@H]2CC[C@H](Nc3ccnc4cc(Cl)ccc34)CC2)cc(OC)c1`, with 150 °C. To `NC(=O)C1CCN(CCO)CC1` belongs 141 to 142 °C. To `CCCCCCCC/C=C\CCCCCCCC(=O)Nc1nc(CC(=O)O)cs1` belongs 106 to 108 °C.

`CCN1C(=O)Cc2cc3c(cc21)CCO3` came in with a melting point of 106 to 107 °C. To `COC(=O)C(=O)c1cc(F)c(OCCOc2ccc3ccccc3c2)c(F)c1` belongs 114 to 115 °C; to `CC(=O)NN=C1CC2(CCN(C)CC2)OC1C` (stereo not given), 164 to 167 °C; to `COc1ccc2c3ccc(OC)cc3n(CCNC(=O)CS(C)(=O)=O)c2c1`, 175 to 177 °C.

For `CC(C)Cc1nc2ccc(Br)cc2c(-c2ccccc2)c1CO`, the melting point was 116 to 118 °C. Then `[N-]=[N+]=NCC1CN(c2ccc(SC(c3ccccc3)(c3ccccc3)c3ccccc3)c(F)c2)C(=O)O1` (stereo not given), with 77 to 79 °C; and `CCOc1nn(C(=O)NS(=O)(=O)c2c(Cl)cccc2SC)c(=O)n1C`, with 144 °C.

In the case of `Fc1cc(Br)ccc1OCc1ccccc1`, the melting point was 64.4 to 66.3 °C.

`O=C(COc1ccc2ccccc2c1)NC(Cc1ccccc1)C(=O)CSCc1ccco1` (stereo not given) showed a melting point of 115 to 118 °C. `CCCCCCCCCCOC(C)c1ccc(C(=O)O)cc1` (single isomer, unassigned; (+)) came in with a melting point of 56.6 to 57.5 °C. To `CCOC(=O)C1=C(C)OC(=O)C1=C(C)O` belongs 106 to 108 °C; to `COc1cc(C(=O)NC(C)(C)C)ccc1S(=O)(=O)Cl`, 145 to 149 °C. To `CCCCCCCCCCCCCCOc1ccc(CNC(C)=O)cc1` belongs 100 to 101 °C; to `CC(C)Cn1nc(-c2ccccc2)c(-c2ccccc2)c1CCl`, 92 °C; to `Cc1ccc(F)cc1C(=O)Nc1ccc(C(=O)N2Cc3cccn3-c3ccccc32)cn1`, 190 to 196 °C. `O=C(c1ccncc1)c1cnc2cc(Cl)ccc2c1Cl`: the melting point was 132 °C. Then `O=c1[nH]ccc2c1c(O)nc1cc(Cl)c(Cl)cc12`, with more than 350 °C. To `CC(=NNC(=O)c1ccccc1)c1sc(C)nc1C` belongs 138 °C; to `CCNC(=O)Nc1nc2cc(-c3cccnc3)cc(-c3nnc(C)o3)n2n1`, 318 to 321 °C.

Take `COc1cccc(OC)c1C=CC(=O)c1ccccc1`: the melting point lay within 54.9 to 55.8 °C. To `CN(c1ccc([N+](=O)[O-])cc1C(F)(F)F)c1c(Cl)c(Cl)nc(Cl)c1Cl` belongs 152 to 155 °C.

`O=C(CBr)Nc1cccc(OC(=O)CBr)c1`: the melting point is 96 to 98 °C. Take `CCOP(=O)(Cc1ccc(NC(=O)/C=C/c2cn[nH]c2-c2ccc(F)cc2)cc1)OCC`: the melting point fell in the range of 181 to 182 °C. For `COC(=O)Cc1sc(SCc2cc(O)nc(C)n2)nc1C`, the melting point fell in the range of 130 to 132 °C. To `Cc1nc(N2CCN(Cc3ccccc3)C2=O)sc1C(=O)O` belongs 248 to 249 °C; to `COC(=O)c1ccc(OC)c(CC2COc3ccc(OCc4ccccc4)cc3C2O)c1` (stereo not given), 133 to 135 °C; to `C[C@@H]1CCCN1CCCOc1ccc(-c2cc(-c3ccccn3)c(=O)[nH]n2)cc1`, 157 to 161 °C.

`CS(=O)c1ccc(C(=O)CCCCCC#N)cc1` (stereo not given) returned a melting point of 58.5 to 60.5 °C. To `CCOC(=O)C1=C(C)NC(C#N)=C(C(=O)OCC)C1c1ccco1` (stereo not given) belongs 139 to 141 °C; to `CCCCCCNC(=O)C1=C(C(=O)Nc2cc(OC3CCCC3)c(Cl)cc2F)CCCC1`, 128 to 130 °C. `CN(C)CCc1cn(C)c2c(F)ccc(OCc3ccccc3)c12` displayed a melting point of 60 to 62 °C. Compound `COC(=O)c1[nH]c2ccc(OC)cc2c1SC` returned a melting point of 128 to 130 °C. `CCOC(=O)Nc1c(Cl)cc(OC)c(OC)c1C(=O)OCC` returned a melting point of 111 to 113 °C. Then `COC(=O)c1ccc(C(=O)Nc2nnc(-c3cc(Cl)cc(Cl)c3O)s2)nc1`, with 301 °C; and `COc1ccc(N2C(=O)C(=O)N(c3ccccc3)C2=O)cc1`, with 129 to 131 °C.
